Read-outs that look alike come from different tables or passages of the source.
Tested on: subjects with PAD
From the text: An individual subject was withdrawn at the discretion of the responsible investigator and the site study team for the reasons listed below as well as for other safety reasons that may not be listed. In the event one or more subjects were withdrawn, additional subjects were enrolled to ensure an adequate number of subjects complete the cohort. Specific reasons for an individual subject to withdraw included but was not limited to: • Subjects with a pattern of severe adverse events in any SOC, or cardiac monitoring findings as determined by the investigator and/or the sponsor. • Subjects with methemoglobin value 15% on any one occasion during study participation. • Subjects with normal baseline blood pressure who experienced any of the following: an increase in blood pressure to 160 mm Hg systolic and/or 90 mmHg diastolic that persists over 24 hours, an increase from baseline blood pressure of 30 mm Hg systolic and/or 15 mm Hg diastolic that persists over 24 hours, any symptomatic increase in blood pressure. • Subjects with stable elevated blood pressure at baseline who experienced any of the following: an increase in blood pressure to 180 mm Hg systolic and/or 100 mmHg diastolic that persists over 24 hours, an increase from baseline blood pressure of 20 mm Hg systolic and/or 10 mm Hg diastolic that persists over 24 hours, any symptomatic increase in blood pressure. • Subjects who experienced a decrease from baseline blood pressure of 20 mm Hg systolic with or without an increase of 10 beats per minute (BPM) pulse and the presence of symptoms.
The withdrawal criteria allowed a subject to withdraw from the study at any time at his/her own request. The subject may also have been withdrawn at the Investigator's request if it was the Investigator's opinion that it was not in the subject's best interest to continue in the study. The subject was withdrawn if he or she met stopping criteria described above. In the event a subject was withdrawn from the study for any reason, the subject was followed-up with reasonable effort made to determine the reason for their withdrawal from the study and an ET visit as described above. Telephone calls, certified letters and offers of transportation assistance were considered reasonable effort.

## O=NO [sodium nitrite]
40 mg, n = 19
  Subjects who completed the study: 17 (89.5%)
  Subjects who withdrew prior to completion: 2 (10.5%)
  Withdrawal: Adverse Event: 1 (5.3%)
  Withdrawal: Met withdrawal-new hypotension: 0 (0.0%)
  Withdrawal: Subject Request-lack of energy: 1 (5.3%)
  Withdrawal: Subject request- no benefit: 0 (0.0%)
  Withdrawal: Subject request-refused to continue: 0 (0.0%)
80 mg, n = 18
  Subjects who completed the study: 15 (83.3%)
  Subjects who withdrew prior to completion: 3 (16.7%)
  Withdrawal: Adverse Event: 2 (11.1%)
  Withdrawal: Met withdrawal-new hypotension: 1 (5.6%)
  Withdrawal: Subject Request-lack of energy: 0 (0.0%)
  Withdrawal: Subject request- no benefit: 0 (0.0%)
  Withdrawal: Subject request-refused to continue: 0 (0.0%)
